Test system: cultured neurocytes of rat fetal cerebral cortex
Test: Activity of accelerating synapse formation (intracellular calcium ion level, fura-2)
Format: cell-based
Conditions: relative value, L-PDMP regarded as 100; compound 20 μM; assay on 10th day of culture
Experimental: The activity of accelerating synapse formation was determined by measuring change of an intracellular calcium ion level resulted from the synchronized spontaneous ignition of neurocytes which is considered to show synapse activities by means of an intracellular calcium ion multipoint observation system using a calcium ion fluorescence indicator, fura-2.
Concretely, rat fetuses at the 18th day of pregnancy were taken out from Wistar rats (available from Japan SLC), and cerebral cortices of the fetuses were taken out and cut into small pieces. After having been treated with papain (manufactured by Worthington Biochemical) at 37° C. for 30 minutes, the pieces were suspended into a Dulbecco modified Eagle's medium containing 5% bovine neonatal serum and 5% equine serum and the cortices were dissociated into single cells with Cell Striner (70 μm, Falcon). Then, the cells were inoculated into a flexiperm plate coated with 0.5% polyethyleneimine (1.0×10^6 cells/500 μl/well), and was cultured in 7% CO2 incubator at 37° C. The medium was exchanged on 2nd, 5th, and 8th days after the culture had been started. The activity of the compound of the present invention was measured using the primary culture. The compound was added at the time when the medium was exchanged and the concentration of the compound was maintained to be 20 μM. Assay was carried out on 10th day after the culture had been started.
(2) Measurement of Activity of Accelerating Synapse Formation
Concretely, after the medium of each well where cells were cultured was substituted with basic salt solution (BSS), 3 μl of a DMSO solution (1 mg/ml) of a calcium ion fluorescence indicator fura-2 was added, and the whole was kept at 37° C. for 1 hour.

Point of comparison: `O=C(CCCCCCCCCO)N[C@@H](CN1CCOCC1)[C@@H](O)c1ccccc1` [Example 23, (1S,2S) -2-(10-hydroxydecanoyl) amino-3-morpholino-1-phenyl-1-propanol], “Activity of synapse formation” value 85.8. Against it:
- N[C@@H](CCCCNC(=O)CCCCCCCCC(=O)N[C@@H](CN1CCOCC1)[C@@H](O)c1ccccc1)C(=O)O [Example 27, (1S,2S,16S)-2-(16-amino-11-aza-10-oxo-16-carboxyhexadecanoyl)amino-3-morpholino-1-phenyl-1-propanol] — higher, 100.0
- CCOC(=O)CCCCC(=O)N[C@@H](CN1CCOCC1)[C@@H](O)c1ccccc1 [Example 6, (1S,2S)-2-ethoxyhexanedioylamino-3-morpholino-1-phenyl-1-propanol] — higher, 87.5
- CCCCCCNC(=O)CCCCCCCCC(=O)N[C@@H](CN1CCOCC1)[C@@H](O)c1ccccc1 [Example 15, (1S,2S)-2-(9-hexylcarbamoyl)nonanoylamino-3-morpholino-1-phenyl-1-propanol] — higher, 90.0
- CCCCN(C)C(=O)CCC(=O)N[C@@H](CN1CCOCC1)[C@@H](O)c1ccccc1 [Example 10, (1S,2S)-2-(N-butyl-N-methylamino)butanedioylamino-3-morpholino-1-phenyl-1-propanol] — higher, 91.7
- (1S,2S)-2-(5-cyclohexylcarbamoyl)pentanoylamino-3-morpholino-1-phenyl-1-propanol [Example 12] — lower, 80.0
- CCCCNC(=O)CCCCCCCCC(=O)N[C@@H](CN1CCOCC1)[C@@H](O)c1ccccc1 [Example 14, (1S,2S)-2-(9-butylcarbamoyl)nonanoylamino-3-morpholino-1-phenyl-1-propanol] — higher, 94.2
- N[C@@H](CCCCNC(=O)CCCCC(=O)N[C@@H](CN1CCOCC1)[C@@H](O)c1ccccc1)C(=O)O [Example 26, (1S,2S,12S)-2-(12-amino-7-aza-6-oxo-12-carboxydodecanoyl)amino-3-morpholino-1-phenyl-1-propanol] — higher, 95.0
- CCCCCCNC(=O)C1CCC(C(=O)N[C@@H](CN2CCOCC2)[C@@H](O)c2ccccc2)CC1 (stereo partly drawn) [Example 17, (1S,2S)-2-(cyclohexane-4-hexylcarbamoyl-1-carbonyl)amino-3-morpholino-1-phenyl-1-propanol] — higher, 90.0
- CCNC(=O)CCCCC(=O)N[C@@H](CN1CCOCC1)[C@@H](O)c1ccccc1 [Example 11, (1S,2S)-2-(5-ethylcarbamoyl)pentanoylamino-3-morpholino-1-phenyl-1-propanol] — higher, 93.3
- CC(=O)CCCCCC(=O)N[C@@H](CN1CCOCC1)[C@@H](O)c1ccccc1 [Example 22, (1S,2S)-2-(7-oxooctanoyl)amino-3-morpholino-1-phenyl-1-propanol] — higher, 88.3
- (1S,2S)-2-(5-hexylcarbamoyl)pentanoylamino-3-morpholino-1-phenyl-1-propanol [Example 13] — higher, 95.0
- CCCCCCOCCOCC(=O)N[C@@H](CN1CCOCC1)[C@@H](O)c1ccccc1 [Example 21, (1S,2S)-2-(3,6-dioxadodecanoyl)amino-3-morpholino-1-phenyl-1-propanol] — higher, 97.5
- CC(=O)NC1C(O)CC(CCCCCCCCC(=O)N[C@@H](CN2CCOCC2)[C@@H](O)c2ccccc2)(C(=O)O)OC1C(O)C(O)CO (stereo partly drawn) [Example 28, (1S,2S)-2-(9-sialylnonanoyl)amino-3-morpholino-1-phenyl-1-propanol] — higher, 95.8
